According to paper PMC6154738, “Anti-Onchocerca and Anti-Caenorhabditis Activity of a Hydro-Alcoholic Extract from the Fruits of Acacia nilotica and Some Proanthocyanidin Derivatives” (Molecules : A Journal of Synthetic Chemistry and Natural …, 2017):
≈ marks a conversion by molar mass, not a printed value. Like-named read-outs stand apart in the source and are kept apart here.

What was measured:
O. ochengi females = experiment: microbe, parasite or virus in culture; design: species or system Onchocerca ochengi; settings: for LC50: Onchocerca ochengi, 48 h; for Selectivity Index (SI) O. ochengi Females: SI = CC50 on Caco-2/LC50 on worm
Protocol: The adult female worms were isolated by digestion of the nodules with collagenase at 37 °C. The female worms were cultured in a CO2-incubator [67]. For anthelmintic activity, they were incubated with the crude extracts, fractions and pure compounds.
(§1) Adult worms (six individuals per well for males and one per well for the female) and Mf were washed twice and were subsequently transferred to RPMI-1640 medium supplemented with L-glutamine, 100 U/mL penicillin and 100 µg/mL streptomycin and incubated at 37 °C in 24-well plates (96-well plate for Mf) with different concentrations of the drugs tested. Worm mortality was checked by observation under the binocular microscope after 48 h. After shaking, immotile and fully-elongated worms were considered to be dead. All tests were done in three independent triplicate determinations.

Wistar rats = experiment: Acute oral toxicity on rats
Excerpt: Adult Wistar rats (Rattus norvegicus), males aged 7 to 8 weeks and weighing 150 to 200 g, used for the experiments were obtained from LANAVET (Laboratoire National Vétérinaire, Garoua, Cameroon). The rats were acclimatized for one week in the Veterinary Research Laboratory of the Institute of Agricultural Research for Development, Wakwa, Cameroon, before initiating experiments. Animals were housed in groups of three (one group for the negative control, six groups for each drug at the first phase, six others at the second phase) under ambient temperatures (23 °C ± 1 °C) with relative humidity 55 ± 5% and 12 h light/dark cycle in polycarbonate cages. […] They were monitored by a veterinarian for health status.
Acute oral toxicity (LD50, that is the dose that kills 50% of animals of the tested group) was measured using the method of the OECD guidelines for the testing of chemicals [56] following the European Community guidelines for the protection of animals used in experiments [69] and respecting the 3Rs (Replacement, Refinement, Reduction) [70]. Drugs in distilled water were orally administered separately at doses of 10 mg/kg, 100 mg/kg and 1000 mg/kg body weight. The negative controls were distilled water-administered rats. They were given to three groups of three rats each and observed for 24 h. […] The test was done at a single oral dose for each rat in a 5 mL/kg volume. The experimental animals were starved for 24 h before and 4 h after treatment. […] The appearance of toxic symptoms, such as behavioral changes, locomotion, convulsions and mortality, was observed and recorded. Animals were observed constantly for the first 30 min after administration and, thereafter, every 4 h up to 24 h and, subsequently, once a day for up to 14 days.

C. elegans N2 Bristol WT = experiment: microbe, parasite or virus in culture; settings: for LC50: Caenorhabditis elegans, 48 h; for Selectivity Index (SI) C. elegans Wild Type: SI = CC50 on Caco-2/LC50 on worm
Protocol: (§2) All strains were obtained from the Caenorhabditis Genetic Centre (CGC, Minneapolis, MN, USA). Strains were maintained at 20 °C on nematode growth medium (NGM). All worms were age-synchronized and obtained from eggs that were isolated by bleaching.
(§3) Young adult (L4 stage) worms were used to assess drug lethality. Monitored endpoint was 48 h mortality. Tests were performed in 24-well plates. Five hundred (500) microliters of test solution, which is M9-buffer (3 g KH2PO4, 6 g Na2HPO4, 5 g NaCl, 0.25 g MgSO4.7H2O, in 1 L of water after been autoclaved supplemented with 2% glucose, 0.5% cholesterol), were distributed in 24-well plates. The volume of M9-buffer equivalent to the drug to be added for each drug final concentration (in each test, three to six concentrations were used) was removed. Untreated worms in M9-buffer were used as negative control. […] Crude extract fraction (stock solution at 100 mg/mL) and pure compound (stock solution at 100 mg/mL) previously dissolved in M9-buffer were then added in well plates at increasing concentration (varying from 0 to 1000 or 1500 µg/mL for extract and fractions; 0 to 100 or 150 µg/mL). The young adult (10 to 15 ± 2) from the axenic culture (without food source) were then added at the test solution. […] Treatments were replicated three times.

[1] = system: C. elegans CB3474 (ben-1(e1880) III); experiment: microbe, parasite or virus in culture; settings: Caenorhabditis elegans, 48 h
Protocol: as §2, §3

O. ochengi males = experiment: microbe, parasite or virus in culture; design: species or system Onchocerca ochengi; settings: for LC50: Onchocerca ochengi, 48 h; for Selectivity Index (SI) O. ochengi Males: SI = CC50 on Caco-2/LC50 on worm
Excerpt: The adult male worms were isolated as previously describe by Ndjonka et al. from fresh pieces of cattle skin (cow-udder) with palpable nodules obtained from the communal slaughter house of Ngaoundere in the Adamawa region of Cameroon. Nodules removed from the skin were brought to the laboratory, washed, drained and sterilized with 70% ethanol for dissection. After dissection of nodules, O. ochengi were extracted, isolated and washed three times in sterile phosphate-buffered saline (PBS). To analyze the anthelmintic activity of extract, fractions and pure compounds, the worms were incubated at 37 °C.
as §1

[2] = In vitro cytotoxicity (MTT) and CC50 determination; type: cell-based; settings: human; for CC50 at 48 h: Caco-2, CC50 after 48 h calculated in µM, read-out: Cytotoxicity CC50, Caco-2 (in brackets) (converted); for CC50 at 72 h: Caco-2, MTT, read-out: Cytotoxicity, means CC50 ± SD, Caco-2
Protocol: Cell culture: […] cells at Passage 70 were kindly provided by Prof. Hensel, Institute of Pharmaceutical Biology and Phytochemistry, University of Münster, and were cultured as previously describe by Zumdick et al..
Cytotoxicity test: The cytotoxicity assays were performed according to the method of Rahman et al.. Briefly, 1.5 × 10^4 viable cells/well were seeded in a 96-well plate and incubated for 24 to 48 h. […] DMEM samples were used as the negative control. […] The medium was removed, and formazan, generated by the activity of dehydrogenases, was solubilized with 70 µL of acidified isopropanol (0.4 M HCl). The amount of MTT-formazan that is directly proportional to the number of living cells was determined by measuring the optical density (OD) at 540 nm using a spectrophotometer. All controls used were treated equally. As control and to determine 100% growth, Caco-2 cells were grown in the absence of drugs so as to calculate cell viability. All determinations were performed in triplicate. […] The selectivity index (SI) values were calculated as the ratio: SI = CC50 of drug on Caco2/LC50 of drug on worm.

O. ochengi microfilariae = experiment: microbe, parasite or virus in culture; design: species or system Onchocerca ochengi; settings: for LC50: Onchocerca ochengi, 48 h; for Selectivity Index (SI) O. ochengi Microfilariae: SI = CC50 on Caco-2/LC50 on worm
Protocol: Microfilariae were isolated as describe by Cho-Ngwa et al. and Ndjonka et al.. About 10 skin snips were obtained from different locations of the skin. The skin snips were then incubated at 37 °C in PBS to let Mf emerge. The highly motile Mf were concentrated by centrifugation at 400× g for 10 min and quantified. The Mf were incubated at 37 °C with the crude extract, fractions and pure compounds.
as §1

O. ochengi [3] = settings: cited from earlier work
O. ochengi [4] = experiment: Anti-Onchocerca activity, all forms of the parasite (summary statements); settings: read-out: LC50 against O. ochengi (all three forms)
Protocol: as §1

[5] = system: C. elegans VC722 (glc-2(ok1047) I); experiment: microbe, parasite or virus in culture; settings: Caenorhabditis elegans, 48 h
Protocol: as §2, §3

[6] = system: C. elegans DA1316 (avr-14(ad1302) I avr-15(ad1051) glc-1(pk54)); experiment: microbe, parasite or virus in culture; settings: Caenorhabditis elegans, 48 h
Protocol: as §2, §3

[7] = system: C. elegans CB211 (lev-1(e211) IV); experiment: microbe, parasite or virus in culture; settings: Caenorhabditis elegans, 48 h
Protocol: as §2, §3

[8] = system: C. elegans ZZ16 (lev-9(x16) X); experiment: microbe, parasite or virus in culture; settings: Caenorhabditis elegans, 48 h, read-out: LC50/48 h
Protocol: as §2, §3

[9] = read-out: LC50/48 h (in brackets)

SMILES	LC50 (O. ochengi females; read-out: LC50/48 h)	LC50 (O. ochengi females; [9])	Selectivity Index (SI) O. ochengi Females (O. ochengi females)	LC50 (C. elegans N2 Bristol WT; [9])	Selectivity Index (SI) C. elegans Wild Type (C. elegans N2 Bristol WT)	LC50 ([1]; read-out: LC50/48 h)	LC50 (O. ochengi males; read-out: LC50/48 h)	LC50 (O. ochengi males; [9])	Selectivity Index (SI) O. ochengi Males (O. ochengi males)	CC50 at 48 h [2]	CC50 at 72 h [2]	LC50 (O. ochengi microfilariae; read-out: LC50/48 h)	LC50 (O. ochengi microfilariae; [9])	Selectivity Index (SI) O. ochengi Microfilariae (O. ochengi microfilariae)	other results
CCCSc1ccc2nc(NC(=O)OC)[nH]c2c1 [Albendazole, reference compound]	1 ± 0.2 µg/mL	3.9 µM	29.4	26.4 µM	4.1	> 100 µg/mL	4.2 ± 0.3 µg/mL	15.7 µM	7	111 µM	29.4 ± 0.5 µg/mL (≈ 111 µM)	2.1 ± 0.5 µg/mL	7.8 µM	14	Mortality of rats: rat number end/start (Wistar rats; Phase 1, 10 mg/kg single oral dose): 0/3; Mortality of rats: rat number end/start (Wistar rats; Phase 1, 100 mg/kg single oral dose): 0/3; Mortality of rats: rat number end/start (Wistar rats; Phase 1, 1000 mg/kg single oral dose): 0/3; Mortality of rats: rat number end/start (Wistar rats; Phase 2, 1500 mg/kg single oral dose): 0/3; Mortality of rats: rat number end/start (Wistar rats; Phase 2, 3000 mg/kg single oral dose): 0/3; Mortality of rats: rat number end/start (Wistar rats; Phase 2, 5000 mg/kg single oral dose): 0/3
CCCCC/C=C\C/C=C\CCCCCCCC(=O)O [linoleic acid]	–	–	–	–	–	–	–	–	–	–	–	–	–	–	LC50 (O. ochengi [3]): 55.7 µM
O=C(OC1Cc2c(O)cc(O)cc2OC1c1cc(O)c(O)c(O)c1)c1cc(O)c(O)c(O)c1 (single isomer, unassigned; (-)) [EGCG, (−)-epigallocatechin-3-O-gallate]	1 ± 0.5 µg/mL	2.3 µM	60.9	109 µM	1.2	35.7 ± 1 µg/mL	1.2 ± 0.5 µg/mL	2.6 µM	50.8	133 µM	60.9 ± 0.8 µg/mL (≈ 133 µM)	1.3 ± 0.2 µg/mL	2.8 µM	46.9	LC50 (O. ochengi [4]): < 2.5 µg/mL; LC50 ([5]; read-out: LC50/48 h): 43.7 ± 2.1 µg/mL; LC50 [5, 9]: 95.4 µM; LC50 (C. elegans N2 Bristol WT; read-out: LC50/48 h): 49.8 ± 0.8 µg/mL; LC50 ([6]; read-out: LC50/48 h): 40.8 ± 0.3 µg/mL; LC50 [6, 9]: 89.1 µM; LC50 [1, 9]: 77.9 µM; LC50 ([7]; read-out: LC50/48 h): 26.3 ± 1.3 µg/mL; LC50 [7, 9]: 57.4 µM; LC50 [8]: > 100 µg/mL
